Measured values as given in ChEMBL document CHEMBL5356966, “A dual mechanism with H2S inhibition and membrane damage of morusin from Morus alba Linn. against MDR-MRSA” (2024).
In brackets after ≈: the same amount, converted by molar mass. Activity calls are given as the source filed them. The rule behind the calls is not given here.

What was measured:
[1] = system: Staphylococcus aureus; test: Antibacterial activity methicillin-resistant Staphylococcus aureus 003 assessed as inhibition of bacterial growth incubated for 24 hrs by CLSI based analysis; assay type: functional
[2] = system: Staphylococcus aureus; test: Antibacterial activity methicillin-resistant Staphylococcus aureus 011 assessed as inhibition of bacterial growth incubated for 24 hrs by CLSI based analysis; assay type: functional
[3] = system: Enterococcus; test: Antibacterial activity vancomycin-resistant Enterococcus assessed as inhibition of bacterial growth incubated for 24 hrs by CLSI based analysis; assay type: functional
[4] = system: Staphylococcus aureus; test: Antibacterial activity Staphylococcus aureus assessed as inhibition of bacterial growth incubated for 24 hrs by CLSI based analysis; assay type: functional
[5] = system: Acinetobacter baumannii; test: Antibacterial activity Acinetobacter baumannii assessed as inhibition of bacterial growth incubated for 24 hrs by CLSI based analysis; assay type: functional
[6] = system: Escherichia coli; test: Antibacterial activity Escherichia coli assessed as inhibition of bacterial growth incubated for 24 hrs by CLSI based analysis; assay type: functional
[7] = system: Staphylococcus aureus; test: Antibacterial activity methicillin-resistant Staphylococcus aureus 003 assessed as inhibition of H2S production at 50 uM; assay type: functional
[8] = system: Staphylococcus aureus; test: Bactericidal activity against methicilin-resistant Staphylococcus aureus 003 at 4 times MIC measured after 24 hrs by time kill assay; assay type: functional, organism-based
[9] = system: Staphylococcus aureus; test: In vivo antibacterial activity against methicilin-resistant Staphylococcus aureus infected in ICR mouse skin infection model assessed as wound area at 40 mg/kg, ip preadministered with compound for 24 hrs followed by bacterial infection and measured after 3 days; assay type: functional; details: time 96 hrs
[10] = system: Staphylococcus aureus; test: Bactericidal activity against Staphylococcus aureus at 4 times MIC measured after 24 hrs by time kill assay; assay type: functional, organism-based

SMILES	MIC [1] [µg/mL]	MIC [2] [µg/mL]	MIC [3] [µg/mL]	MIC [4] [µg/mL]	MIC [5] [µg/mL]	MIC [6] [µg/mL]	inhibition at 50 µM [7] [%]	Activity [8]	Activity [9] [cm2]	Activity [10]
COc1cccc(OC)c1C(=O)N[C@@H]1C(=O)N2[C@@H]1SC(C)(C)[C@@H]2C(=O)[O-].[Na+]	> 128	> 128	32	1						
CC(C)CCCCC(=O)N[C@@H](CCN)C(=O)N[C@H](C(=O)N[C@@H](CCN)C(=O)N[C@H]1CCNC(=O)[C@H]([C@@H](C)O)NC(=O)[C@H](CCN)NC(=O)[C@H](CCN)NC(=O)[C@H](CC(C)C)NC(=O)[C@@H](Cc2ccccc2)NC(=O)[C@@H](CCN)NC1=O)[C@@H](C)O.O=S(=O)(O)O	16	16	128	8	1	0.25				
NOCC(=O)O [CARBOXYMETHOXYLAMINE]							30			
CO[C@@]1(NC(=O)Cc2cccs2)C(=O)N2C(C(=O)O)=C(COC(N)=O)CS[C@@H]21 [CEFOXITIN]	> 128	> 128	> 128	2 (≈ 4.68 µM)				inactive	0.28	inactive
